Assay in all cases: NCI-60 cell line screen, 48 h
Assay [1] has as its system IGROV1 ovarian.
Assay [2] has as its system ACHN renal.
Assay [3] deals with K-562 leukemia.
The subject of assay [4] is NCI-H522 lung.
Assay [5] has as its system NCI-H23 lung.
The subject of assay [6] is HCC-2998 colon.
Assay [7] relates to UO-31 renal.
The subject of assay [8] is UACC-62 melanoma.
The test system of assay [9] is MCF7 breast.
Assay [10] relates to U251 CNS.

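Cultured in 96-well plates, cells were exposed to test compound for 48 hours across five concentrations. GI50 is the concentration that inhibits growth by half. TGI: total growth inhibition.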

Experimental findings from PubChem BioAssay (NCI) are described below.

Consider `CO[C@H]1/C=C/O[C@@]2(C)Oc3c(C)c(O)c4c(O)c(c(/C=N/N5C(C)CN(Cc6ccc(C#N)cc6)CC5C)c(O)c4c3C2=O)NC(=O)/C(C)=C\C=C\[C@H](C)[C@H](O)[C@@H](C)[C@@H](O)[C@@H](C)[C@H](OC(C)=O)[C@@H]1C` (stereo partly specified), for which the GI50 in assay [1] is 7.61 µM; in assay [2], 7.89 µM; in assay [3], 6.71 µM; in assay [4], 6.22 µM; in [5], 9.67 µM; in [6] it was 7.87 µM. In addition, the GI50 was 3.64 µM in assay [7], 3.88 µM in assay [8], 6.37 µM in assay [9] and 6.04 µM in assay [10]. Besides, the TGI amounted to 16.4 µM in assay [1]; 16.2 µM in [2]; 25.3 µM in [3]; 22 µM in assay [4]; 30.7 µM in [5]; 17.6 µM in assay [6]. The TGI amounted to 10.5 µM in assay [7], 10.4 µM in assay [8], 24.3 µM in assay [9] and 12.2 µM in assay [10].

On to `NC(CCl)=NCC12CC3CC(CC(C3)C1)C2`, for which the GI50 in assay [1] was 0.525 µM; in assay [2], 0.567 µM; in assay [3], 0.5 µM; in assay [4] it was 0.391 µM; in assay [5], 0.678 µM; in assay [6] it was 1.65 µM. Also, the GI50 in assay [7] was 0.74 µM; in assay [8], 0.918 µM; in assay [9] it was 0.557 µM; in assay [10] it was 1.38 µM. Further, the TGI turned out to be 31.7 µM in assay [1]; 11.6 µM in assay [2]; 5.21 µM in [3]; 2.19 µM in assay [4]; 4.17 µM in [5]; 7.84 µM in assay [6]. Besides, the TGI in [7] was determined as 15.8 µM; in assay [8] it was 4.08 µM; in [9], 6.9 µM; in [10], 12.1 µM.

As to `FC(F)(F)c1cccc(Oc2ccc(Nc3ncnc4ccc(OCCCN5CCOCC5)cc34)cc2Cl)c1`, the GI50 is 1.01 µM in assay [1]; 1.62 µM in [2]; 1.5 µM in [3]; 0.833 µM in assay [4]; 3.19 µM in [5]; 1.72 µM in [6]. Further, the GI50 is 1.19 µM in assay [7], 1.7 µM in assay [8], 1.74 µM in [9] and 1.9 µM in assay [10]. Further, the TGI is 3.16 µM in assay [1]; 11.1 µM in assay [2]; 5.47 µM in assay [3]; 3.3 µM in assay [4]; 13.4 µM in assay [5]; 3.34 µM in assay [6]. Also, the TGI in assay [7] came to 2.5 µM; in assay [8], 3.13 µM; in assay [9] it was 5.17 µM; in assay [10], 4.19 µM.

In the case of `O=C(N/N=C/c1ccc([N+](=O)[O-])cc1)c1ccccc1Nc1ccnc(C(F)(F)F)c1`, the GI50 in assay [1] is 6.25 µM; in assay [2], 7.89 µM; in assay [3], 11 µM; in [4], 12.5 µM; in [5] it was 9.47 µM; in assay [6] it was 17.9 µM. The GI50 in assay [7] is 16.6 µM; in [8] it was 13.3 µM; in [9] it was 19.9 µM; in assay [10] it was 16.6 µM. Moreover, the TGI in [1] is 19.2 µM; in assay [2], 73 µM; in [3], > 100 µM; in [4] it was 38.3 µM; in [5], > 100 µM; in assay [6] it was 49.5 µM. Further, the TGI in assay [7] was 59.6 µM; in [8], 38.3 µM; in [9] it was 45.6 µM; in assay [10], > 100 µM.

Regarding `CCC(CO)Nc1nc(NCc2ccccc2)c2n[nH]c(C(C)C)c2n1` (stereo unspecified), the GI50 was 3.44 µM in [1]; 4.42 µM in assay [2]; 5.96 µM in assay [3]; 14.5 µM in assay [4]; 12.3 µM in [5]; 12.6 µM in assay [6]. Further, the GI50 in [7] is 7.43 µM; in [8], 11.3 µM; in assay [9] it was 5.92 µM; in assay [10], 11.4 µM. The TGI is 25.6 µM in assay [1]; 16.9 µM in [2]; 34.4 µM in assay [3]; 34.1 µM in assay [4]; 31.2 µM in [5]; 26 µM in [6]. The TGI amounted to 21.9 µM in assay [7], 24.7 µM in [8], 25.9 µM in [9] and 25.3 µM in [10].

On to `C#Cc1cccc(Nc2nc(C)nc3cc(NC(=O)CCl)ccc23)c1`, for which the GI50 in [1] was 0.533 µM; in assay [2], 2.98 µM; in assay [3], 0.953 µM; in assay [4], 0.454 µM; in assay [5], 2.35 µM; in assay [6] it was 3.79 µM. Besides, the GI50 in assay [7] is 3.24 µM; in assay [8], 1.01 µM; in assay [9], 0.836 µM; in [10], 0.641 µM. The TGI was 1.37 µM in assay [1]; 6.67 µM in assay [2]; 3.65 µM in [3]; 0.92 µM in assay [4]; 7.03 µM in [5]; 7.76 µM in assay [6]. In addition, the TGI turned out to be 6.74 µM in assay [7], 3.81 µM in assay [8], 4.05 µM in assay [9] and 1.7 µM in assay [10].

Consider `O=C1NN(C(=O)c2ccccc2)C(c2ccc(Cl)c(Cl)c2)=C/C1=C\c1ccccc1[N+](=O)[O-]`, for which the GI50 is 1.59 µM in [1]; 3.09 µM in [2]; 1.9 µM in assay [3]; 1.24 µM in assay [4]; 1.04 µM in [5]; 1.81 µM in assay [6]. Moreover, the GI50 in [7] is 0.735 µM; in [8], 1.44 µM; in assay [9], 1.82 µM; in [10], 0.897 µM. In addition, the TGI in assay [1] is > 6.75 µM; in assay [2], > 6.75 µM; in [3], > 6.75 µM; in assay [4], 3.77 µM; in assay [5], 6.5 µM; in assay [6], 5.48 µM. The TGI is 6.7 µM in assay [7], > 6.75 µM in assay [8], > 6.75 µM in [9] and > 6.75 µM in assay [10].

As for `COc1cc(/C=C2\C[C@H]3[C@@H]4CC=C5C[C@@H](O)CC[C@]5(C)[C@H]4CC[C@]3(C)[C@H]2O)ccc1OCCN1CCCCC1`, the GI50 in assay [1] is 2.35 µM; in [2], 0.706 µM; in [3], 0.491 µM; in assay [4], 1.6 µM; in [5] it was 1.21 µM; in [6], 0.85 µM. The GI50 in assay [7] is 1.18 µM; in assay [8] it was 1.73 µM; in assay [9], 1.31 µM; in [10], 1.13 µM. Moreover, the TGI was > 26.3 µM in assay [1]; 1.37 µM in assay [2]; 1.32 µM in assay [3]; > 50 µM in [4]; 3.21 µM in assay [5]; 1.64 µM in assay [6]. Moreover, the TGI was found to be 3.45 µM in [8], 20.5 µM in assay [9] and 3.32 µM in assay [10].

On to `CCCCNC(=O)Oc1ccc(/C(=C(\C)c2ccc(OC)cc2)c2ccc(OCCN3CCCCC3)cc2)cc1`, for which the GI50 in assay [1] is 2.6 µM; in assay [2], 3.12 µM; in [3], 1.49 µM; in [4], 3.42 µM; in assay [5], 4.06 µM; in assay [6] it was 3.31 µM. Further, the GI50 was 1.71 µM in [7], 2.06 µM in assay [8], 0.0721 µM in [9] and 2.49 µM in [10]. Besides, the TGI was determined as 6.46 µM in assay [1]; 10.7 µM in [2]; 4.65 µM in [3]; 11.4 µM in [4]; 21.4 µM in [5]; 11.5 µM in [6]. Further, the TGI worked out at 4.01 µM in assay [7], 4.1 µM in assay [8], 3.99 µM in assay [9] and 5.99 µM in assay [10].

On to `Cn1cnc(SC2=CC(=O)C=C3S[C@H]4C[C@@]23c2c(c(O)c3c5c2=NCCC=5C=N3)N4)c1CC(N)C(=O)O` (stereo partly specified), for which the GI50 in assay [1] is 11.6 µM; in [2], 15.6 µM; in assay [4] it was 2.42 µM; in assay [6] it was 13.6 µM; in [7], 16.4 µM; in assay [8], 7.31 µM. Further, the GI50 in assay [10] was 18.1 µM. Moreover, the TGI is 23.9 µM in assay [1]; 29.1 µM in assay [2]; > 87 µM in assay [3]; 5.74 µM in [4]; 15.2 µM in assay [5]; 26.6 µM in [6]. For the same molecule, the TGI in assay [7] amounted to 30.3 µM; in [8], 19.6 µM; in [9], 11.5 µM; in assay [10] it was 32 µM.

As for `O=C(O)c1nn(-c2ccc(Cl)cc2)c2c1C(=O)c1ccccc1C2=O`, the TGI in assay [1], in assay [2], in assay [3], in assay [4], in assay [5] and in assay [6] was > 100 µM throughout. The TGI in assay [7], in assay [8], in assay [9] and in assay [10] was > 100 µM each time.

`Cn1cc(-c2ncnc3ccc(-c4cnc(Cl)c(NS(C)(=O)=O)c4)cc23)c2ccccc21`: the GI50 in assay [1] is 0.0964 µM; in assay [2], 0.781 µM; in assay [3], 2.7 µM; in assay [4], 1.42 µM; in assay [5], 0.903 µM; in assay [6] it was 0.812 µM. The GI50 in assay [7] was 0.164 µM; in [8], 0.181 µM; in assay [9], 0.205 µM; in assay [10], 1.65 µM. Also, the TGI is 0.852 µM in assay [1]; > 100 µM in assay [2]; > 100 µM in [3]; > 100 µM in assay [4]; > 52 µM in assay [5]; 13.3 µM in assay [6]. The TGI in [7] is 5 µM; in assay [8] it was 1.95 µM; in assay [9] it was > 100 µM; in assay [10] it was 23.4 µM.

`COc1ccc(-c2c(NC(=O)Nc3ccc(Cl)c(C(F)(F)F)c3)cnn2-c2ccc(S(N)(=O)=O)cc2)cc1`: the GI50 in [1] is 3.66 µM; in assay [2], 3.97 µM; in assay [3], 3.13 µM; in assay [4] it was 2.98 µM; in [5], 3.14 µM; in assay [6], 3.13 µM. In addition, the GI50 in assay [7] is 3.39 µM; in assay [8], 2.07 µM; in assay [9], 2.67 µM; in assay [10], 3.3 µM. Also, the TGI in assay [1] stood at 21.3 µM; in assay [2], 14.2 µM; in [3], 16.9 µM; in assay [4] it was 12.3 µM; in assay [5] it was 12.4 µM; in assay [6] it was 8.85 µM. The TGI in [7] came to 15.1 µM; in assay [8], 4.47 µM; in [9], 9.22 µM; in [10], 12.3 µM.
